Earlier results in patent publication US10117939B2, “Pharmaceutical compositions comprising nebivolol or a nebivolol analogue” (MYLAN PHARMACEUTICALS ULC, priority 2007, dated 2018).

Conditions: as described in EP 0 744 946

SMILES	Dissolution (in words)
Cl.O[C@H](CNC[C@@H](O)[C@H]1CCc2cc(F)ccc2O1)[C@@H]1CCc2cc(F)ccc2O1 (relative stereo) [nebivolol hydrochloride, ((±))-(R*(S*(S*—(S*))))-(alpha),(alpha)′-(iminobis(methylene)bis-(6-fluoro-3,4-dihydro-2H-1-benzopyran-2-methanol)]	poor dissolution
Cl.O[C@H](CNC[C@@H](O)[C@H]1CCc2cc(F)ccc2O1)[C@@H]1CCc2cc(F)ccc2O1 [“micronized” nebivolol hydrochloride]	even worse than material in the normal crystalline form
